One block for each compound: values may come before it.
Columns and labels:
[1] = Optical characterization (emission spectrum, quantum yield, photostability); format: physicochemical; settings: 808 nm excitation laser
Text: The NIR fluorescence spectrum was taken using a home-built NIR spectroscopy setup. The excitation source was a 200-W ozone-free mercury/xenon lamp (Oriel), which was dispersed by a monochromator (Oriel) to generate an excitation line with a bandwidth of 15 nm. The excitation light was allowed to pass through the solution sample in a 1-mm-path cuvette (Starna Cells, Inc.), and the emission was collected in a transmission geometry. The […] was collected in the 790-1500 nm emission range. The emitted light was directed into a spectrometer (Acton SP2300i) equipped with a liquid-nitrogen-cooled InGaAs linear array detector (Princeton OMA-V). Spectra were corrected post-collection to account for the sensitivity of the detector and extinction feature of the filter. Photostability was determined by spiking CH1055-PEG into serum, PBS, and DI and exposing it in a 1-mm path length cuvette (Starna Cells, Inc.) to continuous 808 nm excitation at a power density of 0.3 W/cm^2 and taking images every 10 seconds for ˜1 hour. Stability was determined by measuring the ROI and comparing the fluorescence intensity to the starting fluorescence signal.
In order to further increase solubility, the carboxylic acid groups of CH1055 were PEGylated with 2 kDa PEG-NH2 through EDC/NHS chemistry.

[2] = Photoacoustic imaging analysis of phantoms; format: physicochemical
Text: For studying the PAI properties of the compound, a cuboid container was half filled with 1% agarose gel to half depth. Different concentrations of compounds aqueous solutions were filled into polyethylene capillaries and then the capillaries were laid on the surface of solidified agarose gel. The capillaries were further covered with thin 1% agarose gel to make the surface smooth. PA spectra and PA/US coregistered images were acquired with a LAZR commercial instrument (VevoLAZR; VisualSonics). It is equipped with a LZ-250 linear array transducer and a tunable Nd:YAG laser system (680-970 nm). In our system, the Vevo LAZR PAI System with a laser at excitation wavelength of 700 nm and a focal depth of 10 mm was used to acquire PA and US images. […] Acquisition rate of 5 frames per second was used for all the experiments. The photoacoustic gain was kept at 42 dB, dynamic range at 18 dB and center frequency of 21 MHz for all studies. US and PA images were obtained sequentially. The PA signals reported were the average pixel intensities from within the Regions of Interest (ROIs). Normalization and quantification of the images were carried out using ImageJ.
Fluorophores with the present design not only have NIR II fluorescence, but also show strong absorption in the NIR-I region and show promise for in vivo photoacoustic imaging. […]

[3] = system: shoulder xenograft U87MG tumors; test: Lymph node / lymphatic vasculature and tumor imaging after intradermal injection; format: in vivo, immunodeficient nude mice; settings: intradermal injection near base of tail
Text: An emerging fluorescent imaging application of ICG currently undergoing clinical trials is in detecting sentinel lymph nodes (SLN) for surgical resection.(28-30) Selectively removing sentinel lymph nodes alleviates lymphedema and other ailments that would be caused by total lymph node removal performed to prevent cancer metastasis. Fluorescent imaging has many benefits compared to the more traditional detection means that include injecting a colored dye, a radioisotope, or a combination of both. ICG is typically injected near a tumor to visualize the lymphatic vessels draining the tumor as well as the sentinel lymph nodes. […] Immediately after injection, CH1055-PEG drainage into the internodal collecting lymphatic vasculature and the inguinal lymph node became apparent. […] (data not shown)
The gradual increase in fluorescence emanating from the tumor occurred while all lymphatic vessels and nodes were still visible.

[4] = NIR-II fluorescence brightness and quantum yield in DI, PBS, FBS, serum and serum proteins; format: physicochemical
Text: The compound contains a taurine (2-aminoethanesulfonic acid) group at the carboxyl linkers of CH1055. […] Sulfonating the present NIR-II dyes is a general procedure that can be applied to a number of the NIR-II small molecules described above to increase their solubility.
The absorbance value of both fluorophores (OD 0.02) in each respective media is equivalent at the excitation wavelength (808 nm) to compare relative quantum yields. NIR-IIa fluorescent image of a C57 mouse brain (1300 LP) after an intravenous injection of equivalent doses of CH-4T (200 ms exposure; Panel B) and of CH1055-PEG (1 s exposure; Panel D). The image intensity scales have been compensated to account for the differences in the exposure times needed to clearly resolve brain vasculature.
(§1) This fluorescence enhancement produces a serum quantum yield of up to ˜10% which is on par with ICG and is among the highest quantum yields of all NIR-II fluorophores (including carbon nanotubes). While soluble in PBS, the quantum yield of CH-4T was determined to be ˜0.07%, yet is enhanced ˜60× through complexation with serum proteins in FBS.
Increased brightening of CH-4T also results from protein interactions. A fluorescence emission spectrum of CH1055-PEG and CH-4T in both FBS and PBS was determined. […] The increased intensity (40,000 a.u. around 1000 nm) for CH-4T in FBS was observed.
While CH-4T complexed with proteins produces an incredibly bright contrast agent, pretreatment of the proteins prior to complexation and subsequent isolation of the bright dye-protein complexes can introduce a further increase in brightness. For instance, a short 10 minutes of horn sonication of FBS prior to mixing with CH-4T followed by 10 minutes of heating in a hot water bath at ˜80° C. can boost the brightness of the CH-4T-protein complex by ˜3-4-fold. The effects on the fluorescence emission spectrum of heating and pre-horn sonicating can be seen while the brightness difference of an FBS-CH-4T solution before and after treatment (data not shown). […]

human and bovine albumin = test: Binding of CH-4T to serum proteins; settings: whole blood, HDL
Description: as §1

Aqueous solubility = format: physicochemical; settings: water / PBS
[5] = Preliminary animal imaging of CH-4T excretion; format: in vivo
Text: It is a small molecule dye similar to ICG, Cy5, and IR800, and enables easier access to NIR-II imaging, as it doesn't require a specialized knowledge of nanomaterials which make up the majority of NIR-II fluorophores.

peak fluorescent emission wavelength [1]: ~1055 nm
NIR-I absorption maximum [2]: 700 nm
wavelength of maximum photoacoustic signal ([2]; NIR pulsed laser, 680-970 nm scan): 700 nm
Compound: O=C(O)CCc1ccc(N(c2ccc(CCC(=O)O)cc2)c2ccc(-c3c4c(c(-c5ccc(N(c6ccc(CCC(=O)O)cc6)c6ccc(CCC(=O)O)cc6)cc5)c5nsnc35)N=S=N4)cc2)cc1 [CH1055]

liver signal after intradermal injection [3]: obvious liver signal
Compound: CC1(C)C(/C=C/C=C/C=C/C=C2\N(CCCCS(=O)(=O)O)c3ccc4ccccc4c3C2(C)C)=[N+](CCCCS(=O)(=O)[O-])c2ccc3ccccc3c21 [ICG, indocyanine green]
tumor fluorescence after intradermal injection [3]: little tumor signal was observed

quantum yield ([4]; in PBS): ~0.07%
serum quantum yield ([4]; in serum, complexed with serum proteins): ≤ 10%
quantum yield ([4]; with treated FBS (sonicated, heated)): ~13%
binding to serum proteins (human and bovine albumin): strong binding
aqueous solubility (Aqueous solubility): highly soluble
excretion kinetics [5]: resemble that of ICG
Compound: O=C(CCc1ccc(N(c2ccc(CCC(=O)NCCS(=O)(=O)O)cc2)c2ccc(-c3c4c(c(-c5ccc(N(c6ccc(CCC(=O)NCCS(=O)(=O)O)cc6)c6ccc(CCC(=O)NCCS(=O)(=O)O)cc6)cc5)c5nsnc35)N=S=N4)cc2)cc1)NCCS(=O)(=O)O [CH-4T]
